Results as given in ChEMBL document CHEMBL5143723, “Orally Bioavailable Enzymatic Inhibitor of CD38, MK-0159, Protects against Ischemia/Reperfusion Injury in the Murine Heart” (J Med Chem, 2022).
≈ marks a conversion by molar mass, not a printed value. Calls of active or inactive are those of the source. The rule behind the calls is not given here.

Columns and labels:
[1] = biological target: T1, ADP-ribosyl cyclase/cyclic ADP-ribose hydrolase 1 (Homo sapiens, UniProt P28907)
T1 sequence (P28907 whole entry): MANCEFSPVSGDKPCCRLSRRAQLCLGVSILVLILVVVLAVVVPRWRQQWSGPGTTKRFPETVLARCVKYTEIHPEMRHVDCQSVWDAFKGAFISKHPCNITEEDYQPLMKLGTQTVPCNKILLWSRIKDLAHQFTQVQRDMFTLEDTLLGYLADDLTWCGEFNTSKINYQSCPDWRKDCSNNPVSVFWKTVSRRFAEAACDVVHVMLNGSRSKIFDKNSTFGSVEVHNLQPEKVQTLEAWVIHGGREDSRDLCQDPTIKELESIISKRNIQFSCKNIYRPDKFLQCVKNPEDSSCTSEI
Description: Inhibition of human his tagged CD38 using N6-etheno-NAD as substrate by fluorescence microplate reader assay

[2] = Drug exposure in mouse plasma assessed as AUC of drug at 3 mg/kg, po; assay type: ADME, organism-based; parameters: dose 3 mg/kg, route po
[3] = Half life in Sprague-Dawley rat at 1 mg/kg, iv; assay type: ADME, organism-based; details: in vivo
[4] = Cmax in non-human primates at 1 mg/kg, po; assay type: ADME, organism-based; parameters: dose 1 mg/kg, route po; details: in vivo
[5] = Plasma concentration in CD1 mouse at 10 to 90 mg/kg, via oral gavage by LC-MS/MS analysis; assay type: ADME, organism-based; details: in vivo, DDE = dose-dependent effect, dose 10-90 mg/kg
[6] = Thermodynamic aqueous solubility of the compound; assay type: physicochemical; details: buffer; read-out: Therm_solubility
[7] = Half life in non-human primates at 1 mg/kg, po; assay type: ADME, organism-based; details: in vivo
[8] = AUC in CD-1 mouse at 1 mg/kg, iv; assay type: ADME, organism-based; parameters: dose 1 mg/kg, route iv; details: in vivo
[9] = Cmax in CD-1 mouse at 3 mg/kg, po; assay type: ADME, organism-based; parameters: dose 3 mg/kg, route po; details: in vivo
[10] = AUC in non-human primates at 1 mg/kg, po; assay type: ADME, organism-based; parameters: dose 1 mg/kg, route po; details: in vivo
[11] = species on record: Mus musculus; details: dose 3-30 mg/kg, route po, time 6.0 hrs
[12] = biological target: T2, ADP-ribosyl cyclase/cyclic ADP-ribose hydrolase 1 (Mus musculus, UniProt P56528); experiment: Inhibition of mouse his tagged CD38 using N6-etheno-NAD as substrate by fluorescence microplate reader assay
T2 sequence (P56528 whole entry): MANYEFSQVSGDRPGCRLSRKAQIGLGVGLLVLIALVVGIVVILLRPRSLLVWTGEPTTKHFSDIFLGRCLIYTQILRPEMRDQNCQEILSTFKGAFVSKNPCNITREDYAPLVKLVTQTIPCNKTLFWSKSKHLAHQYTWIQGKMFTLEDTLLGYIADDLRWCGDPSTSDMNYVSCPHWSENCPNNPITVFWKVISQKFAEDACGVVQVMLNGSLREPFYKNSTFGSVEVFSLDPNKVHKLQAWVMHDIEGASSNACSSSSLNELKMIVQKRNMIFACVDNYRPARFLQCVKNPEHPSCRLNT

[13] = biological target: CYP2D6 (Homo sapiens, UniProt P10635); experiment: Inhibition of CYP2D6 (unknown origin) at 10 uM relative to control; assay type: ADME
[14] = Volume of distribution at steady state in Sprague-Dawley rat at 1 mg/kg, iv; assay type: ADME, organism-based; details: in vivo
[15] = Plasma protein binding in human; assay type: ADME, cell-free; details: read-out: PPB (converted)
[16] = biological target: T3, CYP1A2 (Homo sapiens, UniProt P05177); experiment: Inhibition of CYP1A2 (unknown origin) at 10 uM relative to control; assay type: ADME
T3 sequence (P05177 whole entry): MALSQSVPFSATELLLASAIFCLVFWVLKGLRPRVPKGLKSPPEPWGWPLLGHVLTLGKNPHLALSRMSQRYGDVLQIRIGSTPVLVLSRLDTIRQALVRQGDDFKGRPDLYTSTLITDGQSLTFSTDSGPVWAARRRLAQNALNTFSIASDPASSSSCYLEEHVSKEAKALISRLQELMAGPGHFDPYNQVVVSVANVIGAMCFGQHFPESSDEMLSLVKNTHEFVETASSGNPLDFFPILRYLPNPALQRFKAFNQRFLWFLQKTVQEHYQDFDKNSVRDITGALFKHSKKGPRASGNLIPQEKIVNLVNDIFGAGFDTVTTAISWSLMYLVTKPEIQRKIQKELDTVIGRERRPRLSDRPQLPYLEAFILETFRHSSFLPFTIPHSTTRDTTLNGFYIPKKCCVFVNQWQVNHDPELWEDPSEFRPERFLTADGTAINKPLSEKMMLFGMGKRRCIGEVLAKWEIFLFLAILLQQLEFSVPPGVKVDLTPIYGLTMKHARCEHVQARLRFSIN

[17] = Half life in non-human primates at 1 mg/kg, iv; assay type: ADME, organism-based; details: in vivo
[18] = species on record: Mus musculus; details: C57BL/6, dose 30.0 mg/kg, route po, time 4.0 hrs
[19] = AUC in non-human primates at 1 mg/kg, iv; assay type: ADME, organism-based; parameters: dose 1 mg/kg, route iv; details: in vivo
[20] = species on record: Mus musculus; details: dose 3-30 mg/kg, route po, time 6.0 hrs; remark: listed apart in the source
[21] = In vivo inhibition of CD38 in po dosed mouse assessed as reduction in ADPR level in blood mg/kg measured after 6 hrs; assay type: functional, organism-based
[22] = biological target: T4, CYP2C8 (Homo sapiens, UniProt P10632); experiment: Inhibition of CYP2C8 (unknown origin) at 10 uM relative to control; assay type: ADME
T4 sequence (P10632 whole entry): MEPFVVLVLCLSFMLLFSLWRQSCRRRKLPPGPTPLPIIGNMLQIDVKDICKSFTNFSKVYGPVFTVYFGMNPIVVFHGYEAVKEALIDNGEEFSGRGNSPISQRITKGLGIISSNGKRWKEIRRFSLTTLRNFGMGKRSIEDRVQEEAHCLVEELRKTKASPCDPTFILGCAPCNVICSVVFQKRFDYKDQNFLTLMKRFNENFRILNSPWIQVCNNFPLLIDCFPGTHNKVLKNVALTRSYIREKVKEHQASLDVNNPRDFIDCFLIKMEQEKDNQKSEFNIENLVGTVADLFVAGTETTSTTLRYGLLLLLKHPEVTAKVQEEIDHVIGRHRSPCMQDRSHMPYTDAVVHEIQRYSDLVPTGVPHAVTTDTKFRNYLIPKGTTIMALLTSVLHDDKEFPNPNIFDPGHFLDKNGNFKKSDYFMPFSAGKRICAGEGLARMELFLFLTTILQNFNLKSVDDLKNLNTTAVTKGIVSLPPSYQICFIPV

[23] = AUC in Sprague-Dawley rat at 10 mg/kg, po; assay type: ADME, organism-based; parameters: dose 10 mg/kg, route po; details: in vivo
[24] = Oral bioavailability in non-human primates at 1 mg/kg; assay type: ADME, organism-based; details: in vivo
[25] = biological target: CYP2C19 (Homo sapiens, UniProt P33261); experiment: Inhibition of CYP2C19 (unknown origin) at 10 uM relative to control; assay type: ADME
[26] = species on record: Mus musculus; details: C57BL/6, dose 30.0 mg/kg, route po
Description: In vivo inhibition of CD38 in myocardial ischemia/reperfusion induced C57BL/6 mouse injury model assessed as change in cardiac NAD+ level at 30 mg/kg via oral gavage

[27] = Plasma protein binding in mouse; assay type: ADME, cell-free; details: read-out: PPB (converted)
[28] = Volume of distribution at steady state in CD-1 mouse at 1 mg/kg, iv; assay type: ADME, organism-based; details: in vivo
[29] = Kinetic aqueous solubility of the compound; assay type: physicochemical; details: buffer; read-out: Kinetic_solubility
[30] = Apparent permeability of compound across basolateral to apical side in human Caco-2 cells; assay type: ADME, cell-based
[31] = In vivo inhibition of CD38 in po dosed mouse assessed as reduction in ADPR level in heart measured after 6 hrs; assay type: functional, organism-based
[32] = Half life in Sprague-Dawley rat at 10 mg/kg, po; assay type: ADME, organism-based; details: in vivo
[33] = Volume of distribution at steady state in non-human primates at 1 mg/kg, iv; assay type: ADME, organism-based; details: in vivo, read-out: Vdss
[34] = Plasma concentration in Sprague-Dawley rat at 10 to 90 mg/kg, via oral gavage by LC-MS/MS analysis; assay type: ADME, organism-based; details: in vivo, DDE = dose-dependent effect, dose 10-90 mg/kg
[35] = biological target: T5, ADP-ribosyl cyclase/cyclic ADP-ribose hydrolase 1 (Rattus norvegicus, UniProt Q64244); experiment: Inhibition of rat CD38 using N6-etheno-NAD as substrate by fluorescence microplate reader assay
T5 sequence (Q64244 whole entry): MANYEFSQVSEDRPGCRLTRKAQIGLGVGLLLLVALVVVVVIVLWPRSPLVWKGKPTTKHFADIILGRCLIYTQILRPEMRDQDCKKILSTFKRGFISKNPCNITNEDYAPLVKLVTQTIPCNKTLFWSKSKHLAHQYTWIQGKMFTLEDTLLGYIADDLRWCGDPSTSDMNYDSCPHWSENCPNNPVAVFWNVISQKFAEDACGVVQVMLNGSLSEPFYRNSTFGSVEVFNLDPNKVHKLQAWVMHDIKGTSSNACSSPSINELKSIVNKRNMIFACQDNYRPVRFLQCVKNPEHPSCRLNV

[36] = Plasma protein binding in rat; assay type: ADME, cell-free; details: read-out: PPB (converted)
[37] = species on record: Mus musculus; details: C57BL/6, dose 30.0 mg/kg, route po, time 4.0 hrs; remark: listed apart in the source
[38] = AUC in CD-1 mouse at 3 mg/kg, po; assay type: ADME, organism-based; parameters: dose 3 mg/kg, route po; details: in vivo
[39] = species on record: Mus musculus; details: dose 3-30 mg/kg, route po, time 6.0 hrs; remark: listed apart in the source
[40] = Half life in CD-1 mouse at 3 mg/kg, po; assay type: ADME, organism-based; details: in vivo
[41] = Cmax in Sprague-Dawley rat at 10 mg/kg, po; assay type: ADME, organism-based; parameters: dose 10 mg/kg, route po; details: in vivo
[42] = biological target: hERG (Homo sapiens, UniProt Q12809); experiment: Inhibition of hERG (unknown origin) at 10 uM by patch clamp method; assay type: toxicity
[43] = AUC in Sprague-Dawley rat at 1 mg/kg, iv; assay type: ADME, organism-based; parameters: dose 1 mg/kg, route iv; details: in vivo
[44] = biological target: CYP2C9 (Homo sapiens, UniProt P11712); experiment: Inhibition of CYP2C9 (unknown origin) at 10 uM relative to control; assay type: ADME
[45] = species on record: Mus musculus; details: dose 3-30 mg/kg, route po, time 6.0 hrs; remark: listed apart in the source
[46] = Apparent permeability of compound across apical to basal membrane in human Caco-2 cells; assay type: ADME, cell-based
[47] = Half life in CD-1 mouse at 1 mg/kg, iv; assay type: ADME, organism-based; details: in vivo
[48] = species on record: Mus musculus; details: C57BL/6, dose 30.0 mg/kg, route po, time 4.0 hrs; remark: listed apart in the source

CYP2D6, sequence (P10635 whole entry): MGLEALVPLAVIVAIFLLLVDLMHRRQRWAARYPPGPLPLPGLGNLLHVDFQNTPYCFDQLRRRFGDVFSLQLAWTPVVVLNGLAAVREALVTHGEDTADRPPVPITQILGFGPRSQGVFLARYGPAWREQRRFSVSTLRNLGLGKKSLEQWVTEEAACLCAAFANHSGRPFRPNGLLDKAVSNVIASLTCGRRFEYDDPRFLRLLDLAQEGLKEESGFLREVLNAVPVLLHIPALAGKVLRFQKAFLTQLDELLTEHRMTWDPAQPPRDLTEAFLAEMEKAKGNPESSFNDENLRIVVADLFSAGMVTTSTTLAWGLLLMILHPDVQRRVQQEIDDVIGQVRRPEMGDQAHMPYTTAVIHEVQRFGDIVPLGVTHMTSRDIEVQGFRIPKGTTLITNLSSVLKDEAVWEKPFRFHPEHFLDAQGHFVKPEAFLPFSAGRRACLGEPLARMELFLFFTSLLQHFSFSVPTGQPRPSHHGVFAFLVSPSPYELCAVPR
CYP2C19, sequence (P33261 whole entry): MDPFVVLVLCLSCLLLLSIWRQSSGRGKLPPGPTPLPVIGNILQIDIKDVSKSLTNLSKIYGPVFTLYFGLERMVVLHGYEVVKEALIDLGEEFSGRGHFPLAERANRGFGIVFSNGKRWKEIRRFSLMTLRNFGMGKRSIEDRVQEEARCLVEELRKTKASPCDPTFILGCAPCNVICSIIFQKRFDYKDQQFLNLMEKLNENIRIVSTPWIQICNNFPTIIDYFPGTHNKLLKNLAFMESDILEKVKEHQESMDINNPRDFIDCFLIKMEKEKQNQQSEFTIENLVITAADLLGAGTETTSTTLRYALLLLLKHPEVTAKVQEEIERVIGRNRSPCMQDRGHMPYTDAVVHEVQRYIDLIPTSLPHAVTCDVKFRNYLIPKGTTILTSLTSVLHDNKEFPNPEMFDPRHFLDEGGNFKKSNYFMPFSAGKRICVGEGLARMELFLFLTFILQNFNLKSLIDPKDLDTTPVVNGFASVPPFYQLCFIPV
CYP2C9, sequence (P11712 whole entry): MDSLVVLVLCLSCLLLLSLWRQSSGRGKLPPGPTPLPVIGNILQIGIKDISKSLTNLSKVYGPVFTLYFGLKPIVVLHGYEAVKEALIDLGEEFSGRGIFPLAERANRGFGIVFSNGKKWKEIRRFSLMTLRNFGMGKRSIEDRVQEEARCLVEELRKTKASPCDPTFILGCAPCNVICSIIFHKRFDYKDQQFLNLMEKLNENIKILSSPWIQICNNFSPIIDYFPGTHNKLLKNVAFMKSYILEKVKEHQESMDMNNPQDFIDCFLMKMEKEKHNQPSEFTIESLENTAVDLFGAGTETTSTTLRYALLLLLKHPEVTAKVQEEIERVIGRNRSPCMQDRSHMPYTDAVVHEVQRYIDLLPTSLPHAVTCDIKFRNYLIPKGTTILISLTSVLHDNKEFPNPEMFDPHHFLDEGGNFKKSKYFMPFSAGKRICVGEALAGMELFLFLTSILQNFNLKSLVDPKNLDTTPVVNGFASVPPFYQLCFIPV
hERG, sequence (Q12809 whole entry): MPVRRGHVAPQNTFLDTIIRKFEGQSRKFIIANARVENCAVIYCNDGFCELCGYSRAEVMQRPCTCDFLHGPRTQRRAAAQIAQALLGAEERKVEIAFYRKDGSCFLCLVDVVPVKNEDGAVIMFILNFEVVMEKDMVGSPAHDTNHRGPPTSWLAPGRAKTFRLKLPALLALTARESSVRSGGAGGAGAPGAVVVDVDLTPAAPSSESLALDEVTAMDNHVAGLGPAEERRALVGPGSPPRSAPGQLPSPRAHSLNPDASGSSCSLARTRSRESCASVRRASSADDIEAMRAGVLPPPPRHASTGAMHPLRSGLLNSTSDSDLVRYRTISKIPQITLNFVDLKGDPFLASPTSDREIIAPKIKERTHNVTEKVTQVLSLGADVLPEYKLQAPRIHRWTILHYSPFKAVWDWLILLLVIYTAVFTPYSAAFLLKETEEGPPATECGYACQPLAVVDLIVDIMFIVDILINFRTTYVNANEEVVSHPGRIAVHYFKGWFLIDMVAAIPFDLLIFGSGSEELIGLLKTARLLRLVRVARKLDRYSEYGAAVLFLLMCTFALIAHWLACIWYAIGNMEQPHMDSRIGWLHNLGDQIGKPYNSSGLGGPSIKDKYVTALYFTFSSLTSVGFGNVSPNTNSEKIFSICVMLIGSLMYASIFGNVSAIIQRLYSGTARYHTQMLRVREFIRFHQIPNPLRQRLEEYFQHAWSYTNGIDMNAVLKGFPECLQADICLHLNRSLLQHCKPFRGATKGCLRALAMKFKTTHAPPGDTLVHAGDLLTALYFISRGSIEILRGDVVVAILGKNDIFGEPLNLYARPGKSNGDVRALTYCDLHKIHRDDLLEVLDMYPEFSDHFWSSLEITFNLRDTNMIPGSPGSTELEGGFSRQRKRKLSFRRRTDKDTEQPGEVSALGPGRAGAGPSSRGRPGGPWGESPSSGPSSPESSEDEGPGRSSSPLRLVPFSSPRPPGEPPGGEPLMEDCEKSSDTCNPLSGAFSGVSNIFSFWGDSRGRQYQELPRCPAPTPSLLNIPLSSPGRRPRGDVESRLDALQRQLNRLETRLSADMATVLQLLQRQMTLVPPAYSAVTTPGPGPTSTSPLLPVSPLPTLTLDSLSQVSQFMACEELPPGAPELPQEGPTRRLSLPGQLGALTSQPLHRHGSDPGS

Structure (SMILES): COCCO[C@H]1CC[C@H](CNC(=O)c2cc(-c3cncs3)cc3[nH]ccc23)CC1
- IC50 [1]: 6 µM

Structure (SMILES): COCCO[C@H]1CC[C@H](NC(=O)c2cc(-c3cnn(C)c3)cc3cc[nH]c23)CC1
- IC50 [1]: > 100 µM

Structure (SMILES): COCCO[C@H]1CC[C@H](NC(=O)c2cc(-n3ccnc3C)cc3cc[nH]c23)CC1
- IC50 [1]: > 100 µM

Structure (SMILES): COCCO[C@H]1CC[C@H](NC(=O)c2cc(-c3cncs3)cc3[nH]ccc23)CC1
- AUC [2]: 6980 ng·h/mL

Structure (SMILES): COCCO[C@H]1CC[C@H](NC(=O)c2cc(-c3cccnn3)cc3cc[nH]c23)CC1
- IC50 [1]: > 100 µM

Structure (SMILES): COCCO[C@H]1CC[C@H](NC(=O)c2cc(-c3ccccn3)cc3cc[nH]c23)CC1
- IC50 [1]: > 100 µM

Structure (SMILES): COCCO[C@H]1CC[C@H](N(C)C(=O)c2cc(-c3cncs3)cc3[nH]ccc23)CC1
- IC50 [1]: > 100 µM

Structure (SMILES): COCCO[C@H]1CC[C@H](NC(=O)c2cc(-c3cncs3)nc3[nH]ccc23)CC1
- t1/2 [3]: 3 h
- Cmax [4]: 710 ng/mL
- Activity [5]: Dde
- solubility thermodynamic [6]: 10 µg/mL (≈ 25 µM)
- half-life [7]: 180 min
- AUC [8]: 1295 ng·h/mL
- Cmax [9]: 4230 ng/mL
- AUC [10]: 1740 ng·h/mL
- inhibition [11]: Active
- IC50 [12]: 3 nM
- inhibition at 10 µM [13]: < 15%
- Vdss [14]: 9 L/kg
- fraction unbound [15]: 0.209
- inhibition at 10 µM [16]: < 15%
- half-life [17]: 186 min
- inhibition [18]: Active
- AUC [19]: 1670 ng·h/mL
- inhibition [20]: Active
- EC50 [21]: 40 nM
- inhibition at 10 µM [22]: < 15%
- AUC [23]: 60400 ng·h/mL
- bioavailability [24]: 100%
- inhibition at 10 µM [25]: < 15%
- inhibition [26]: Active
- fraction unbound [27]: 0.206
- Vdss [28]: 1.1 L/kg
- solubility kinetic [29]: 25 µM (≈ 10 µg/mL)
- Papp B→A [30]: 29.6 ×10⁻⁶ cm/s
- EC50 [31]: 181 nM
- half-life [32]: 162 min
- Vd [33]: 0.9 L/kg
- Activity [34]: Dde
- IC50 [35]: 70 nM
- fraction unbound [36]: 0.047
- inhibition [37]: Active
- AUC [38]: 10400 ng·h/mL
- inhibition [39]: Active
- half-life [40]: 72 min
- Cmax [41]: 9.91 ng/mL
- inhibition at 10 µM [42]: < 10%
- AUC [43]: 4810 ng·h/mL
- AUC [2]: 10400 ng·h/mL
- inhibition at 10 µM [44]: < 15%
- inhibition [45]: Active
- Papp A→B [46]: 17.5 ×10⁻⁶ cm/s
- t1/2 [47]: 1 h
- inhibition [48]: Active
